The record followed here is patent US10889572B2, “Reactive oxygen species scavengers and use for treating diseases” (XW LABORATORIES INC., priority 2017, dated 2021).

For this assay, the system named is HT-1080 (fibrosarcoma) cells. The assay is described as follows: Primary screening by ferroptosis assay (Erastin-induced, cell viability, CellTiter-Glo). It is filed as cell-based. To be noted: HT-1080 cells, % remaining activity, read-out: EC50, Inhibition for Ferroptosis in HT-1080 Cell. The method, then: Cell Lines and Media: HT-1080 (fibrosarcoma) cells were obtained from American Type Culture Collection. Cells were grown in EMEM media, 10% Heat-Inactivated FBS, and penicillin-streptomycin mix (Invitrogen). Cells were maintained at 37° C. and 5% CO2 in a tissue culture incubator.
Cell Viability Assay: Seed 10,000 cell/well of HT-1080 cells with 195 μL growth media in black and clear bottom 96-well plates (Cat #Corning 3904) and allow cells to adhere overnight. The next day, dilute test compound by 2-fold dilution into 12 points with medium containing 400 μM Erastin. Transfer 5 μL of compounds solution into growth medium in triplicated wells. 30 hours later, add Cell Titer-Glo® Luminescent cell viability assay reagent (Cat #, Promega G8081) to measure HT-1080 cell viability according to the manufacture protocol. Briefly, aspirate 100 μL medium, and add 50 μL CellTiter-Glo® Luminescent reagent to each well and incubated for 30 minutes at room temperature to stabilize the Luminescent signal. Seal the plates and centrifuged for 1 minute at 1,000 rpm to remove bubbles. Shake the plates for 1 minute on an orbital shaker. Read the plate to detect Luminescent signal with EnSpire Multimode Plate Reader (PerkinElmer). The remaining activity % is used to evaluate Erastin induced ferroptosis in HT-1080 cells and expressed as the following formula: % Remaining Activity−100×[(Sample−Backgroundavg)/(Vehicle−Background avg)]
Sample: Readout from the test compound
Vehicle: Readout from the vehicle sample
Background: Readout from the Erastin only treatment
Dose response curve is graphed by using the non-linear regression analysis (formula equation 201) in XLFit (Excel add-in software) for the average % remaining activity from triplicates, and the EC50 values is then calculated. In this anti-ferroptosis assay, ferrostatin-1, and XJB-5-131 are included as reference. The acceptance criteria were set based on historical result, mean±2.58*SD in logarithmic scale, meanwhile Z′>0.5.
(ATP-based viability assays read luminescence as a measure of living cells.)

As usually defined, the EC50 is the concentration needed to bring the measured effect to its halfway point.

Where a name gives a salt, the structure may show the parent alone. Read-outs that look alike come from different tables or passages of the source.

As for `CC(C)C[C@@H](/C=C/[C@H](Cc1ccccc1)C(=O)N1CCCC1C(=O)N[C@@H](CCCCNC(=O)OC1CC(C)(C)N(O)C(C)(C)C1)C(=O)OC1CCCCC1)NC(=O)OC(C)(C)C` (stereo in doubt) [Example XXXXVI, (S)—Cyclohexyl 2-((R)-1-((2S,5S,E)-2-benzyl-5-((tert-butoxycarbonyl)amino)-7-methyloct-3-enoyl)pyrrolidine-2-carboxamido)-6-((((1-hydroxy-2,2,6,6-tetramethylpiperidin-4-yl)oxy)carbonyl)amino)hexanoate], the EC50 (Homo sapiens, HT-1080, 30 h) is 66.3 nM.
For the compound `CC(C)C[C@H](N)/C=C/[C@H](Cc1ccccc1)C(=O)N1CCC[C@H]1C(=O)N[C@H](CCCNC(=O)OCc1ccccc1)C(=O)NC1CC(C)(C)N(O)C(C)(C)C1` [Example XIII, Benzyl N-[(4R)—4-{[(2S)-1-[(2S,3E,5S)-5-amino-2-benzyl-7-methyloct-3-enoyl]pyrrolidin-2-yl]formamido}-4-[(1-hydroxy-2,2,6,6-tetramethyl-piperidin-4-yl)carbamoyl]butyl]carbamate dihydrochloride], for the setting “Homo sapiens, HT-1080, 30 h”, the concentration giving a half-maximal response (EC50) turned out to be 262 nM.
In the case of `CC(C)C[C@@H](/C=C/[C@H](Cc1ccccc1)C(=O)N1CCC[C@H]1C(=O)N[C@@H](CCCNC(=O)OC1CC(C)(C)N(O)C(C)(C)C1)C(=O)NC1CC(C)(C)N(O)C(C)(C)C1)NC(=O)OC(C)(C)C` [XXXXIII, 1-Hydroxy-2,2,6,6-tetramethylpiperidin-4-yl N-[(4S)—4-{[(2S)-1-[(2S,3E,5S)-2-benzyl-5-{[(tert-butoxy)carbonyl]amino}-7-methyloct-3-enoyl]pyrrolidin-2-yl]formamido}-4-[(1-hydroxy-2,2,6,6-tetramethylpiperidin-4-yl)carbamoyl]butyl]carbamate], where the note is “Homo sapiens, HT-1080, 30 h”, the EC50 came to 123 nM.
Turning to `CC(C)C[C@@H](/C=C/C(Cc1ccccc1)C(=O)N1CCC[C@H]1C(=O)N[C@H](C(=O)N[C@@H](CCCNC(=O)OCc1ccccc1)C(=O)NC1CC(C)(C)N(O)C(C)(C)C1)C1CC1)NC(=O)OC(C)(C)C` (stereo in doubt) [Example XII, Benzyl N-[(4S)-4-[(2S)—2-{[(2S)-1-[(2R,3E,5S)-2-benzyl-5-{[(tert-butoxy)carbonyl]amino}-7-methyloct-3-enoyl]pyrrolidin-2-yl]formamido}-2-cyclopropylacetamido]-4-[(1-hydroxy-2,2,6,6-tetramethylpiperidin-4-yl)carbamoyl]butyl]carbamate], the EC50 (Homo sapiens, HT-1080, 30 h) turned out to be 481 nM.
Take `CC(C)C[C@@H](/C=C/[C@H](Cc1ccccc1)C(=O)N1CCC[C@H]1C(=O)N[C@H](C(=O)N[C@@H](CCCNC(=O)OCc1ccccc1)C(=O)NC1CC(C)(C)N(O)C(C)(C)C1)C(C)C)NC(=O)OC1CC(C)(C)N(O)C(C)(C)C1` [Example XXV, 1-Hydroxy-2,2,6,6-tetramethylpiperidin-4-yl N-[(4S,5E,7S)-7-benzyl-8-[(2S)—2-{[(1S)—1-{[(1S)—4-{[(benzyloxy)carbonyl]amino}-1-[(1-hydroxy-2,2,6,6-tetramethylpiperidin-4-yl)carbamoyl]butyl]carbamoyl}-2-methylpropyl]carbamoyl}pyrrolidin-1-yl]-2-methyl-8-oxooct-5-en-4-yl]carbamate dihydrochloride]: the EC50 (Homo sapiens, HT-1080, 30 h) is 255 nM.
With `CC(C)C[C@@H](/C=C/[C@H](Cc1ccccc1)C(=O)N1CCC[C@H]1C(=O)N[C@@H](Cc1ccc(O)cc1)C(=O)NC1CC(C)(C)N(O)C(C)(C)C1)NC(=O)OC(C)(C)C` [Example XVI, tert-Butyl N-[(4S,5E,7S)-7-benzyl-8-[(2S)—2-{[(1S)-1-[(1-hydroxy-2,2,6,6-tetramethylpiperidin-4-yl)carbamoyl]-2-(4-hydroxyphenyl)ethyl]carbamoyl}pyrrolidin-1-yl]-2-methyl-8-oxooct-5-en-4-yl]carbamate], the half-maximal effective concentration (EC50) (Homo sapiens, HT-1080, 30 h) is 536 nM.
As to `CC(C)C[C@@H](/C=C/[C@H](Cc1ccccc1)C(=O)N1CCC[C@H]1C(=O)N[C@@H](CCCNC(=O)OC1CC(C)(C)N(O)C(C)(C)C1)C(=O)NC(C)C)NC(=O)OC(C)(C)C` [Example XXXXV], the EC50 (30 hours) was found to be 144 nM.
`CCN(CC)C(=O)[C@H](CCCNC(=O)OC1CC(C)(C)N(O)C(C)(C)C1)NC(=O)[C@@H]1CCCN1C(=O)[C@H](/C=C/[C@H](CC(C)C)NC(=O)OC(C)(C)C)Cc1ccccc1` [Example XXXV, tert-Butyl N-[(4S,5E,7S)-7-benzyl-8-[(2S)—2-{[(1S)-1-(diethylcarbamoyl)-4-({[(1-oxyl-2,2,6,6-tetramethylpiperidin-4-yl)oxy]carbonyl}amino)-butyl]carbamoyl}pyrrolidin-1-yl]-2-methyl-8-oxooct-5-en-4-yl]carbamate]: under “Homo sapiens, HT-1080, 30 h”, the EC50 turned out to be 192 nM.
`CC(C)C[C@@H](/C=C/[C@H](Cc1ccccc1)C(=O)N1CCC[C@H]1C(=O)N[C@H](C(=O)N[C@@H](CCCNC(=O)OC1CC(C)(C)N(O)C(C)(C)C1)C(=O)NC(C)C)C(C)C)NC(=O)OC(C)(C)C` [Example XXXXVII, tert-Butyl N-[(4S,5E,7S)-7-benzyl-8-[(2S)—2-{[(1S)—1-{[(1S)-4-({[(1-oxyl-2,2,6,6-tetramethylpiperidin-4-yl)oxy]carbonyl}amino)-1-[(propan-2-yl)carbamoyl]butyl]carbamoyl}-2-methylpropyl]carbamoyl}pyrrolidin-1-yl]-2-methyl-8-oxooct-5-en-4-yl]carbamate]: under “Homo sapiens, 30 hours”, the 50% effective concentration (EC50) is 143 nM.
`CC(C)C[C@@H](/C=C/[C@H](Cc1ccccc1)C(=O)N1CCC[C@H]1C(=O)N[C@H](C(=O)N[C@@H](CCCNC(=O)OCc1ccccc1)C(=O)NC1CC(C)(C)N([O])C(C)(C)C1)C(C)C)NC(=O)OC1CC(C)(C)N([O])C(C)(C)C1` [Example VIII, 1-Oxyl-2,2,6,6-tetramethylpiperidin-4-yl N-[(4S,5E,7S)-7-benzyl-8-[(2S)—2-{[(1S)—1-{[(1S)—4-{[(benzyloxy)carbonyl]amino}-1-[(1-oxyl-2,2,6,6-tetramethylpiperidin-4-yl)carbamoyl]butyl]carbamoyl}-2-methylpropyl]carbamoyl}pyrrolidin-1-yl]-2-methyl-8-oxooct-5-en-4-yl]carbamate]: the EC50 (30 hours) turned out to be 266 nM.
As to `COC(=O)[C@H](CCCNC(=O)OC1CC(C)(C)N(O)C(C)(C)C1)NC(=O)[C@@H]1CCCN1C(=O)[C@H](/C=C/[C@H](CC(C)C)NC(=O)OC(C)(C)C)Cc1ccccc1` [Example XVIII], the concentration giving a half-maximal response (EC50) (Homo sapiens, HT-1080, 30 h) was 86 nM.
As to `CC(C)C[C@@H](/C=C/[C@H](Cc1ccccc1)C(=O)N1CCC[C@@H]1C(=O)NC1CC(C)(C)N(O)C(C)(C)C1)NC(=O)OC(C)(C)C` [Example VI, tert-Butyl N-[(4S,5E,7S)-7-benzyl-8-[(2R)-2-[(1-hydroxy-2,2,6,6-tetramethylpiperidin-4-yl)carbamoyl]pyrrolidin-1-yl]-2-methyl-8-oxooct-5-en-4-yl]carbamate], the EC50 (Homo sapiens, HT-1080, 30 h) came to 1020 nM.
On to `CC(C)C[C@@H](/C=C/[C@H](Cc1ccccc1)C(=O)N1CCC[C@@H]1C(=O)N[C@@H](CCCNC(=O)OC(C)(C)C)C(=O)NC1CC(C)(C)N(O)C(C)(C)C1)NC(=O)OC(C)(C)C` [Example XXI, tert-Butyl N-[(4S,5E,7S)-7-benzyl-8-[(2R)—2-{[(1S)—4-{[(tert-butoxy)carbonyl]amino}-1-[(1-hydroxy-2,2,6,6-tetramethylpiperidin-4-yl)carbamoyl]butyl]carbamoyl}pyrrolidin-1-yl]-2-methyl-8-oxooct-5-en-4-yl]carbamate], for which the half-maximal effective concentration (EC50) (Homo sapiens, 30 hours) is 257 nM.
With `CC(C)C[C@@H](/C=C/[C@H](Cc1ccccc1)C(=O)N1CCC[C@H]1C(=O)N[C@@H](CCCCNC(=O)OCc1ccccc1)C(=O)NC1CC(C)(C)N(O)C(C)(C)C1)NC(=O)OC(C)(C)C` [Example XXVII, Benzyl N-[(5S)—5-{[(2S)-1-[(2S,3E,5S)-2-benzyl-5-{[(tertbutoxy)carbonyl]amino}-7-methyloct-3-enoyl]pyrrolidin-2-yl]formamido}-5-[(1-hydroxy-2,2,6,6-tetramethylpipe-ridin-4-yl)carbamoyl]pentyl]carbamate], the EC50 (30 hours) worked out at 141 nM.
`CC(C)C[C@@H](/C=C/[C@H](Cc1ccccc1)C(=O)N1CCC[C@H]1C(=O)N[C@H](CCCCNC(=O)OC1CC(C)(C)N(O)C(C)(C)C1)C(=O)OC(C)C)NC(=O)OC(C)(C)C` [Example XXXIII, Propan-2-yl (2R)—2-{[(2S)-1-[(2S,3E,5S)-2-benzyl-5-{[(tert-butoxy)carbonyl]amino}-7-methyloct-3-enoyl]pyrrolidin-2-yl]formamido}-6-({[(1-oxyl-2,2,6,6-tetramethylpiperidin-4-yl)oxy]carbonyl}amino)hexanoate]: for the setting “Homo sapiens, HT-1080, 30 h”, the 50% effective concentration (EC50) came out at 291 nM.
